Source: PubChem BioAssay (NCI)
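Five compound concentrations were applied to cells in 96-well plates for 48 hours; endpoints were derived by simple linear interpolation of the resulting dose-response curve. Here, GI50 denotes the concentration required for 50% inhibition of growth. At the TGI there is no net growth.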

Experiments:
Assay in all cases: NCI anticancer screen, dose series, 48 h
SK-MEL-2 melanoma = test system: SK-MEL-2 melanoma
HT29 colon = test system: HT29 colon
NCI-H522 lung = test system: NCI-H522 lung
MDA-MB-435 = test system: MDA-MB-435
OVCAR-3 ovarian = test system: OVCAR-3 ovarian
KM12 colon = test system: KM12 colon
A549 NSCLC = test system: A549 NSCLC
OVCAR-5 ovarian = test system: OVCAR-5 ovarian
UO-31 renal = test system: UO-31 renal
SNB-75 CNS = test system: SNB-75 CNS
MALME-3M melanoma = test system: MALME-3M melanoma
SNB-19 CNS = test system: SNB-19 CNS
MOLT-4 leukemia = test system: MOLT-4 leukemia
786-0 renal = test system: 786-0 renal
SR leukemia = test system: SR leukemia
HS 578T breast = test system: HS 578T breast
CCRF-CEM leukemia = test system: CCRF-CEM leukemia
NCI/ADR-RES ovarian = test system: NCI/ADR-RES ovarian
NCI-H226 lung = test system: NCI-H226 lung
T-47D breast = test system: T-47D breast
BT-549 breast = test system: BT-549 breast
OVCAR-8 ovarian = test system: OVCAR-8 ovarian
TK-10 renal = test system: TK-10 renal
NCI-H460 lung = test system: NCI-H460 lung
SK-OV-3 ovarian = test system: SK-OV-3 ovarian
HCT-116 colon = test system: HCT-116 colon
HCC-2998 colon = test system: HCC-2998 colon
HOP-62 NSCLC = test system: HOP-62 NSCLC
LOX IMVI melanoma = test system: LOX IMVI melanoma
SF-539 CNS = test system: SF-539 CNS
HCT-15 colon = test system: HCT-15 colon
IGROV1 ovarian = test system: IGROV1 ovarian
RPMI-8226 leukemia = test system: RPMI-8226 leukemia
CAKI-1 renal = test system: CAKI-1 renal
SF-268 CNS = test system: SF-268 CNS
MCF7 breast = test system: MCF7 breast
SF-295 CNS = test system: SF-295 CNS
SK-MEL-28 melanoma = test system: SK-MEL-28 melanoma
SN12C renal = test system: SN12C renal
SW-620 colon = test system: SW-620 colon
MDA-MB-231 breast = test system: MDA-MB-231 breast
A498 renal = test system: A498 renal
OVCAR-4 ovarian = test system: OVCAR-4 ovarian
RXF 393 renal = test system: RXF 393 renal
HL-60(TB) leukemia = test system: HL-60(TB) leukemia
M14 melanoma = test system: M14 melanoma
DU-145 prostate = test system: DU-145 prostate
PC-3 prostate = test system: PC-3 prostate
U251 CNS = test system: U251 CNS
UACC-257 melanoma = test system: UACC-257 melanoma
K-562 leukemia = test system: K-562 leukemia
UACC-62 melanoma = test system: UACC-62 melanoma
HOP-92 NSCLC = test system: HOP-92 NSCLC
COLO 205 colon = test system: COLO 205 colon
ACHN renal = test system: ACHN renal
EKVX NSCLC = test system: EKVX NSCLC
SK-MEL-5 melanoma = test system: SK-MEL-5 melanoma

SMILES: CC[C@@H](CO)Nc1ccc2ncc(C#Cc3cncc(C(=O)Nc4ccc(CN5CCN(C)CC5)c(C(F)(F)F)c4)c3)n2n1
- GI50 (SK-MEL-2 melanoma): 0.115 µM
- TGI (SK-MEL-2 melanoma): 0.339 µM
- GI50 (HT29 colon): 0.157 µM
- TGI (HT29 colon): 0.655 µM
- GI50 (NCI-H522 lung): 0.0592 µM
- TGI (NCI-H522 lung): 0.157 µM
- GI50 (MDA-MB-435): 0.104 µM
- TGI (MDA-MB-435): 0.634 µM
- GI50 (OVCAR-3 ovarian): 0.167 µM
- TGI (OVCAR-3 ovarian): 0.954 µM
- GI50 (KM12 colon): 0.00927 µM
- TGI (KM12 colon): 0.793 µM
- GI50 (A549 NSCLC): 0.199 µM
- TGI (A549 NSCLC): 0.768 µM
- GI50 (OVCAR-5 ovarian): 0.236 µM
- TGI (OVCAR-5 ovarian): 1.31 µM
- GI50 (UO-31 renal): 0.917 µM
- TGI (UO-31 renal): 1.93 µM
- GI50 (SNB-75 CNS): 0.0206 µM
- TGI (SNB-75 CNS): 0.108 µM
- GI50 (MALME-3M melanoma): 0.125 µM
- TGI (MALME-3M melanoma): 0.544 µM
- GI50 (SNB-19 CNS): 0.203 µM
- TGI (SNB-19 CNS): 1.24 µM
- GI50 (MOLT-4 leukemia): 0.0438 µM
- TGI (MOLT-4 leukemia): 0.693 µM
- GI50 (786-0 renal): 0.282 µM
- TGI (786-0 renal): 0.986 µM
- GI50 (SR leukemia): 0.034 µM
- TGI (SR leukemia): 0.534 µM
- GI50 (HS 578T breast): 0.0598 µM
- TGI (HS 578T breast): 0.451 µM
- GI50 (CCRF-CEM leukemia): 0.0264 µM
- TGI (CCRF-CEM leukemia): 1.31 µM
- GI50 (NCI/ADR-RES ovarian): 5.58 µM
- TGI (NCI/ADR-RES ovarian): 18.4 µM
- GI50 (NCI-H226 lung): 0.0796 µM
- TGI (NCI-H226 lung): 0.635 µM
- GI50 (T-47D breast): 0.582 µM
- TGI (T-47D breast): 1.59 µM
- GI50 (BT-549 breast): 0.614 µM
- TGI (BT-549 breast): 1.35 µM
- GI50 (OVCAR-8 ovarian): 0.169 µM
- TGI (OVCAR-8 ovarian): 0.627 µM
- GI50 (TK-10 renal): 0.343 µM
- TGI (TK-10 renal): 1.18 µM
- GI50 (NCI-H460 lung): 0.163 µM
- TGI (NCI-H460 lung): 0.541 µM
- GI50 (SK-OV-3 ovarian): 0.622 µM
- TGI (SK-OV-3 ovarian): 2.15 µM
- GI50 (HCT-116 colon): 0.0661 µM
- TGI (HCT-116 colon): 0.355 µM
- GI50 (HCC-2998 colon): 0.238 µM
- TGI (HCC-2998 colon): 0.858 µM
- GI50 (HOP-62 NSCLC): 0.178 µM
- TGI (HOP-62 NSCLC): 0.909 µM
- GI50 (LOX IMVI melanoma): 0.0634 µM
- TGI (LOX IMVI melanoma): 0.258 µM
- GI50 (SF-539 CNS): 0.032 µM
- TGI (SF-539 CNS): 0.172 µM
- GI50 (HCT-15 colon): 0.583 µM
- TGI (HCT-15 colon): 1.7 µM
- GI50 (IGROV1 ovarian): 0.077 µM
- TGI (IGROV1 ovarian): 0.365 µM
- GI50 (RPMI-8226 leukemia): 0.254 µM
- TGI (RPMI-8226 leukemia): 1.07 µM
- GI50 (CAKI-1 renal): 0.142 µM
- TGI (CAKI-1 renal): 0.458 µM
- GI50 (SF-268 CNS): 0.109 µM
- TGI (SF-268 CNS): 0.554 µM
- GI50 (MCF7 breast): 0.0469 µM
- TGI (MCF7 breast): 0.409 µM
- GI50 (SF-295 CNS): 0.413 µM
- TGI (SF-295 CNS): 1.39 µM
- GI50 (SK-MEL-28 melanoma): 0.278 µM
- TGI (SK-MEL-28 melanoma): 1.1 µM
- GI50 (SN12C renal): 0.0452 µM
- TGI (SN12C renal): 0.605 µM
- GI50 (SW-620 colon): 0.0813 µM
- TGI (SW-620 colon): 0.281 µM
- GI50 (MDA-MB-231 breast): 0.0482 µM
- TGI (MDA-MB-231 breast): 0.5 µM
- GI50 (A498 renal): 1.06 µM
- TGI (A498 renal): 1.92 µM
- GI50 (OVCAR-4 ovarian): 0.145 µM
- TGI (OVCAR-4 ovarian): 0.982 µM
- GI50 (RXF 393 renal): 0.11 µM
- TGI (RXF 393 renal): 0.333 µM
- GI50 (HL-60(TB) leukemia): 0.104 µM
- TGI (HL-60(TB) leukemia): 0.462 µM
- GI50 (M14 melanoma): 0.118 µM
- TGI (M14 melanoma): 0.36 µM
- GI50 (DU-145 prostate): 0.144 µM
- TGI (DU-145 prostate): 0.543 µM
- GI50 (PC-3 prostate): 0.272 µM
- TGI (PC-3 prostate): 1.79 µM
- GI50 (U251 CNS): 0.243 µM
- TGI (U251 CNS): 0.805 µM
- GI50 (UACC-257 melanoma): 0.39 µM
- TGI (UACC-257 melanoma): 1.25 µM
- GI50 (K-562 leukemia): 0.005 µM
- TGI (K-562 leukemia): 1.64 µM
- GI50 (UACC-62 melanoma): 0.284 µM
- TGI (UACC-62 melanoma): 1.1 µM
- GI50 (HOP-92 NSCLC): 0.067 µM
- TGI (HOP-92 NSCLC): 0.261 µM
- GI50 (COLO 205 colon): 0.0892 µM
- TGI (COLO 205 colon): 0.196 µM
- GI50 (ACHN renal): 0.363 µM
- TGI (ACHN renal): 1.18 µM
- GI50 (EKVX NSCLC): 0.142 µM
- TGI (EKVX NSCLC): 1.05 µM
- GI50 (SK-MEL-5 melanoma): 0.681 µM
- TGI (SK-MEL-5 melanoma): 1.35 µM
